Like-named read-outs stand apart in the source and are kept apart here.
Tests used:
[1] = eight male volunteers, alcoholic beverage followed by 30 grams of fructose or sucrose, hourly measurements; cited from earlier work
[2] = for C2H5OH % Decrease at Equilibrium, Trial 2 / C2H5OH % Decrease at Equilibrium, Trial 3 / C2H5OH % Decrease at Equilibrium, Trial 4 / C2H5OH % Decrease at Equilibrium, Trial 5 / C2H5OH % Decrease at Equilibrium, Average / C2H5OH % Decrease at Equilibrium, Trial 1: equal acetic acid
Description: Titrations with potassium permanganate (KMnO4) were later performed after the contents of each beaker received 5 minutes each of vigorous stirring and 25 minutes of inactivity to compare the final amount of ethanol left with the original amount.
In the following we describe the detailed procedure of in vitro experiment to verify the validity of reducing the amount of ethanol by esterification: • 1. Label four 100-mL beakers, 0.4 M, 0.6 M, 0.8 M, and 1.0 M. • 2. Put 17.15 mL of distilled water into each. • 3. Add 0.4 mL of concentrated ethanol to the first beaker, 0.6 mL to the second, 0.8 mL to the third, and 1.0 mL to the fourth. Swivel each beaker gently for 20-30 seconds to ensure mixing. See calculations below for explanation. • 4. Add another 17.15 mL of water to each beaker • 5. […] See calculations below for explanation. • 6. Stir each sample vigorously for five minutes in succession. […] Put on latex gloves before handling potassium permanganate. • 8. Set up two burettes, and fill each with approximately 100 mL of 0.2 M potassium permanganate. This will enable two titrations to be simultaneously done. • 9. Record the initial volume of potassium permanganate present in both burettes. • 10. Place 1.0 M and 0.8 M beakers on hot plate, and turn to power level 3. Heating quickens the titration process. • 11. Slowly drip KMnO4 into beakers while stirring. Make sure that each beaker is consistently titrated with the same burette to ensure that the exact volumes of KMnO4 that each beaker received can be easily calculated. • 12. Potassium permanganate is purple in color. When reacted with ethanol, a brown color (manganese oxide, MnO2) appears. The reaction is as follows:
When potassium permanganate ceases to be converted into manganese oxide, and the purple color stays, the titration is finished. There is no ethanol left in the beaker to react with potassium permanganate. • 13. Remove both beakers from hot plate. Measure the volume of potassium permanganate remaining in each burette. Subtract from the original volumes to find the volume of KMnO4 consumed in each reaction. • 14. Repeat steps 9-13 for the 0.6 M and 0.4 M beakers. • 15. Use stoichiometry to calculate the molar amount of 0.2 M potassium permanganate used in each titration. • 16. Ethanol and potassium permanganate react in a 3:4 molar ratio, according to the equation 3C2H5OH+4KMnO4→3CH3COOH+4MnO2+4KOH+H2O.
Again, use a chain calculation to calculate the molar amount of ethanol remaining in each beaker, then divide by […] to convert to molarity. Compare to the molarity of ethanol originally in each beaker. Calculate % error. • 17. Results (see Table 2)

## OC[C@H]1O[C@@](CO)(O[C@H]2O[C@H](CO)[C@@H](O)[C@H](O)[C@H]2O)[C@@H](O)[C@@H]1O [sucrose]
[1]
  percent of ethanol decrease (plateau, on average): 29%

## CC(=O)O [acetic acid]
[2]; 0.4-1.0 M ethanol with same volume and concentration of acetic acid
  decrease in the amount of ethanol when the system reaches equilibrium: 79-86%
[2]; equal molar number of acetic acid added to the ethanol solution, 5 repeats
  reduction of the ethanol amount: 80-90%
[2]; initial C2H5OH 0.4 M
  C2H5OH % Decrease at Equilibrium, Trial 2: 78.1%
  C2H5OH % Decrease at Equilibrium, Trial 3: 81.5%
  C2H5OH % Decrease at Equilibrium, Trial 4: 81.2%
  C2H5OH % Decrease at Equilibrium, Trial 5: 80.0%
[2]; initial C2H5OH 0.4 M, average of trials
  C2H5OH % Decrease at Equilibrium, Average: 80.2%
[2]; initial C2H5OH 0.6 M
  C2H5OH % Decrease at Equilibrium, Trial 2: 82.7%
  C2H5OH % Decrease at Equilibrium, Trial 3: 83.8%
  C2H5OH % Decrease at Equilibrium, Trial 4: 83.7%
  C2H5OH % Decrease at Equilibrium, Trial 5: 82.5%
[2]; initial C2H5OH 0.6 M, average of trials
  C2H5OH % Decrease at Equilibrium, Average: 83.2%
[2]; initial C2H5OH 0.8 M
  C2H5OH % Decrease at Equilibrium, Trial 1: 89.1%
  C2H5OH % Decrease at Equilibrium, Trial 2: 86.2%
  C2H5OH % Decrease at Equilibrium, Trial 3: 84.7%
  C2H5OH % Decrease at Equilibrium, Trial 4: 84.6%
  C2H5OH % Decrease at Equilibrium, Trial 5: 85.5%
[2]; initial C2H5OH 0.8 M, average of 5 trials
  C2H5OH % Decrease at Equilibrium, Average: 86.0%
[2]; initial C2H5OH 1.0 M
  C2H5OH % Decrease at Equilibrium, Trial 1: 91.3%
  C2H5OH % Decrease at Equilibrium, Trial 2: 88.8%
  C2H5OH % Decrease at Equilibrium, Trial 3: 86.5%
  C2H5OH % Decrease at Equilibrium, Trial 4: 91.1%
  C2H5OH % Decrease at Equilibrium, Trial 5: 90.4%
[2]; initial C2H5OH 1.0 M, average of 5 trials
  C2H5OH % Decrease at Equilibrium, Average: 89.6%

## O=C(CO)[C@@H](O)[C@H](O)[C@H](O)CO [fructose]
[1]
  percent of ethanol decrease (plateau, on average): 29%

— patent US20110060048A1, “Removing alcohol in vivo through esterification” (priority 2009, published 2011)
